Measurements: patent US20180036289A1 (Gilead Sciences, Inc., priority 2016, published 2018)

Key:
Test in all cases: Cell proliferation assay (ATPlite), drug with vs without cobicistat
Assay type in all cases: cell-based
MIA PaCa-2 = MIA PaCa-2 cell line; 120 hours incubation
Procedure: (§1) All cell lines were obtained from the American Type Culture Collection (ATCC) Manassas, Va. (US). Master and working cell banks (MCB and WCB) were prepared by subculturing in ATCC-recommended media and freezing protocols (www.atcc.org). Cell line stocks for the assays were prepared from the WCB. The MCB, WCBs and assay stocks were prepared within respectively 3, 6 and 9 passages of the ATCC vial.
(§2) Solid powders of reference compounds were weighed on a calibrated balance and dissolved in 100% DMSO. DMSO samples were stored at room temperature. At the day of the experiment, the compound stock was diluted in 3.16 fold steps in 100% DMSO to obtain a 9-point dilution series. This was further diluted 31.6 times in 20 mM sterile Hepes buffer pH 7.4. A volume of 5 μl was transferred to the cells to generate a test concentration range from 3.16×10^−5M to 3.16×10^−9 M in duplicate. The final DMSO concentration during incubation was […] in all wells.
(§3) An assay stock was thawed and diluted in its ATCC recommended medium and dispensed in a 384-well plate, depending on the cell line used, at a concentration of 200-3200 cells per well in 45 μl medium. For each used cell line the optimal cell density is used. The margins of the plate were filled with phosphate-buffered saline. Plated cells were incubated in a humidified atmosphere of 5% CO2 at 37° C. After 24 hours, 5 μl of compound dilution was added and plates were further incubated for another 120 hours. After 120 hours, 25 μl of ATPlite 1Step™ (PerkinElmer) solution was added to each well, and subsequently shaken for 2 minutes. After 10 minutes of incubation in the dark, the luminescence was recorded on an Envision multimode reader (PerkinElmer).
(§4) IC50s were calculated by non-linear regression using IDBS XLfit 5. The percentage growth after 120 h (%-growth) was calculated as follows: 100%×(luminescencet=120h/luminescenceuntreated,t=120h). This was fitted to the ^10log compound concentration (conc) by a 4-parameter logistics curve: %−growth=bottom+(top−bottom)/(1+10^(log IC50-conc)*hill)), where hill is the Hill-coefficient, and bottom and top the asymptotic minimum and maximum cell growth that the compound allows in that assay.

MeWo = MeWo cell line; 120 hours incubation
Procedure: as §1, §2, §3, §4

PA-1 = PA-1 cell line; 120 hours incubation
Procedure: as §1, §2, §3, §4

A-427 = A-427 cell line; 120 hours incubation
Procedure: as §1, §2, §3, §4

SK-N-FI = SK-N-FI cell line; 120 hours incubation
Procedure: as §1, §2, §3, §4

A-549 = A-549 cell line; 120 hours incubation
Procedure: as §1, §2, §3, §4

SHP-77 = SHP-77 cell line; 120 hours incubation
Procedure: as §1, §2, §3, §4

Hs 578T = Hs 578T cell line; 120 hours incubation
Procedure: as §1, §2, §3, §4

A-704 = A-704 cell line; 120 hours incubation
Procedure: as §1, §2, §3, §4

NCI-H82 = NCI-H82 cell line; 120 hours incubation
Procedure: as §1, §2, §3, §4

BT-20 = BT-20 cell line; 120 hours incubation
Procedure: as §1, §2, §3, §4

FaDu = FaDu cell line; 120 hours incubation
Procedure: as §1, §2, §3, §4

RT4 = RT4 cell line; 120 hours incubation
Procedure: as §1, §2, §3, §4

VA-ES-BJ = VA-ES-BJ cell line; 120 hours incubation
Procedure: as §1, §2, §3, §4

SW48 = SW48 cell line; 120 hours incubation
Procedure: as §1, §2, §3, §4

AsPC-1 = AsPC-1 cell line; 120 hours incubation
Procedure: as §1, §2, §3, §4

A375 = A375 cell line; 120 hours incubation
Procedure: as §1, §2, §3, §4

MOLT-4 = MOLT-4 cell line; 120 hours incubation
Procedure: as §1, §2, §3, §4

K-562 = K-562 cell line; 120 hours incubation
Procedure: as §1, §2, §3, §4

SK-N-AS = SK-N-AS cell line; 120 hours incubation
Procedure: as §1, §2, §3, §4

DU 145 = DU 145 cell line; 120 hours incubation
Procedure: as §1, §2, §3, §4

A-172 = A-172 cell line; 120 hours incubation
Procedure: as §1, §2, §3, §4

RPMI-7951 = RPMI-7951 cell line; 120 hours incubation
Procedure: as §1, §2, §3, §4

SW480 = SW480 cell line; 120 hours incubation
Procedure: as §1, §2, §3, §4

T98G = T98G cell line; 120 hours incubation
Procedure: as §1, §2, §3, §4

SW620 = SW620 cell line; 120 hours incubation
Procedure: as §1, §2, §3, §4

C-33 A = C-33 A cell line; 120 hours incubation
Procedure: as §1, §2, §3, §4

A-204 = A-204 cell line; 120 hours incubation
Procedure: as §1, §2, §3, §4

U-2 OS = U-2 OS cell line; 120 hours incubation
Procedure: as §1, §2, §3, §4

SW948 = SW948 cell line; 120 hours incubation
Procedure: as §1, §2, §3, §4

Compound | Fold change in IC50 (IC50 [Drug + Cobicistat]/IC50 [Drug]) (MIA PaCa-2) | Fold change in IC50 (IC50 [Drug + Cobicistat]/IC50 [Drug]) (MeWo) | Fold change in IC50 (IC50 [Drug + Cobicistat]/IC50 [Drug]) (PA-1) | Fold change in IC50 (IC50 [Drug + Cobicistat]/IC50 [Drug]) (A-427) | Fold change in IC50 (IC50 [Drug + Cobicistat]/IC50 [Drug]) (SK-N-FI) | Fold change in IC50 (IC50 [Drug + Cobicistat]/IC50 [Drug]) (A-549) | Fold change in IC50 (IC50 [Drug + Cobicistat]/IC50 [Drug]) (SHP-77) | Fold change in IC50 (IC50 [Drug + Cobicistat]/IC50 [Drug]) (Hs 578T) | Fold change in IC50 (IC50 [Drug + Cobicistat]/IC50 [Drug]) (A-704) | Fold change in IC50 (IC50 [Drug + Cobicistat]/IC50 [Drug]) (NCI-H82) | Fold change in IC50 (IC50 [Drug + Cobicistat]/IC50 [Drug]) (BT-20) | Fold change in IC50 (IC50 [Drug + Cobicistat]/IC50 [Drug]) (FaDu) | Fold change in IC50 (IC50 [Drug + Cobicistat]/IC50 [Drug]) (RT4) | Fold change in IC50 (IC50 [Drug + Cobicistat]/IC50 [Drug]) (VA-ES-BJ) | Fold change in IC50 (IC50 [Drug + Cobicistat]/IC50 [Drug]) (SW48) | Fold change in IC50 (IC50 [Drug + Cobicistat]/IC50 [Drug]) (AsPC-1) | Fold change in IC50 (IC50 [Drug + Cobicistat]/IC50 [Drug]) (A375) | Fold change in IC50 (IC50 [Drug + Cobicistat]/IC50 [Drug]) (MOLT-4) | Fold change in IC50 (IC50 [Drug + Cobicistat]/IC50 [Drug]) (K-562) | Fold change in IC50 (IC50 [Drug + Cobicistat]/IC50 [Drug]) (SK-N-AS) | further results
COc1cccc2c1C(=O)c1c(O)c3c(c(O)c1C2=O)C[C@@](O)(C(=O)CO)C[C@@H]3O[C@H]1C[C@H](N)[C@H](O)[C@H](C)O1 [doxorubicin] | 2.2 fold | 2.1 fold | 3.0 fold | 1.5 fold | 2.0 fold | 0.8 fold | 2.5 fold | 1.7 fold | 1.3 fold | 2.6 fold | 1.0 fold | 1.7 fold | 2.7 fold | 2.8 fold | 1.8 fold | 1.3 fold | 2.2 fold | 1.9 fold | 2.5 fold | 2.3 fold | Fold change in IC50 (IC50 [Drug + Cobicistat]/IC50 [Drug]) (DU 145): 2.1 fold; Fold change in IC50 (IC50 [Drug + Cobicistat]/IC50 [Drug]) (A-172): 2.5 fold; Fold change in IC50 (IC50 [Drug + Cobicistat]/IC50 [Drug]) (RPMI-7951): 2.3 fold; Fold change in IC50 (IC50 [Drug + Cobicistat]/IC50 [Drug]) (SW480): 2.5 fold; Fold change in IC50 (IC50 [Drug + Cobicistat]/IC50 [Drug]) (T98G): 1.4 fold; Fold change in IC50 (IC50 [Drug + Cobicistat]/IC50 [Drug]) (SW620): 2.6 fold; Fold change in IC50 (IC50 [Drug + Cobicistat]/IC50 [Drug]) (C-33 A): 1.9 fold; Fold change in IC50 (IC50 [Drug + Cobicistat]/IC50 [Drug]) (A-204): 2.5 fold; Fold change in IC50 (IC50 [Drug + Cobicistat]/IC50 [Drug]) (U-2 OS): 3.0 fold; Fold change in IC50 (IC50 [Drug + Cobicistat]/IC50 [Drug]) (SW948): 2.5 fold
CC(=O)O[C@H]1C(=O)[C@@]2(C)[C@H]([C@H](OC(=O)c3ccccc3)[C@]3(O)C[C@H](OC(=O)[C@H](O)[C@@H](NC(=O)c4ccccc4)c4ccccc4)C(C)=C1C3(C)C)[C@]1(OC(C)=O)CO[C@@H]1C[C@@H]2O [paclitaxel] | 3.0 fold | 2.0 fold | 3.9 fold | 1.2 fold | 2.5 fold | 1.0 fold | 2.3 fold | 2.6 fold | 1.5 fold | 2.4 fold | 1.5 fold | 1.3 fold | 3.7 fold | 2.8 fold | 1.4 fold | 2.2 fold | 2.3 fold | 2.1 fold | 2.4 fold | 2.3 fold | Fold change in IC50 (IC50 [Drug + Cobicistat]/IC50 [Drug]) (DU 145): 4.8 fold; Fold change in IC50 (IC50 [Drug + Cobicistat]/IC50 [Drug]) (A-172): 1.7 fold; Fold change in IC50 (IC50 [Drug + Cobicistat]/IC50 [Drug]) (RPMI-7951): 2.9 fold; Fold change in IC50 (IC50 [Drug + Cobicistat]/IC50 [Drug]) (SW480): 1.9 fold; Fold change in IC50 (IC50 [Drug + Cobicistat]/IC50 [Drug]) (T98G): 5.2 fold; Fold change in IC50 (IC50 [Drug + Cobicistat]/IC50 [Drug]) (SW620): 1.8 fold; Fold change in IC50 (IC50 [Drug + Cobicistat]/IC50 [Drug]) (C-33 A): 1.3 fold; Fold change in IC50 (IC50 [Drug + Cobicistat]/IC50 [Drug]) (A-204): 3.6 fold; Fold change in IC50 (IC50 [Drug + Cobicistat]/IC50 [Drug]) (U-2 OS): 3.2 fold; Fold change in IC50 (IC50 [Drug + Cobicistat]/IC50 [Drug]) (SW948): 2.6 fold
